Measured values as given in patent US10035760B2, “Inhibitors of human immunodeficiency virus replication” (priority 2013, dated 2018).
Like-named read-outs stand apart in the source and are kept apart here.

System: recombinant NL4-3 virus (Renilla luciferase) in MT-2 cells
Assay: HIV cell culture assay (antiviral activity, luciferase readout in infected MT-2 cells)
Assay type: cell-based
Conditions: Renilla
Procedure, shortened: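 EC50 derived via median-effect equation from luciferase activity in MT-2 cells after 4–5 day infection, compound serially diluted. Virus: recombinant NL4-3 with Renilla luciferase replacing part of nef, made in 293T cells.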

[1] = NL43, read-out: Activity, antiviral activity class, recombinant NL4-3 Renilla luciferase virus in MT-2 cells
[2] = NL43, recombinant NL4-3 Renilla luciferase virus in MT-2 cells

In the case of `CCCc1ccccc1S(=O)(=O)NC(=O)N[C@@H](Cc1ccccc1)C(=O)N(C)c1ccc2c(c1)OCO2` [Example 145, (S)—N-(benzo[d][1,3]dioxol-5-yl)-N-methyl-3-phenyl-2-(3-((2-propylphenyl)sulfonyl)ureido)propanamide], the EC50 [1] is reported as 0.1 to 1 µM.

In the case of `CCc1ccccc1S(=O)(=O)NC(=O)N[C@@H](Cc1ccccc1)C(=O)N(C)c1ccc2c(c1)OCO2` [Example 146, (S)—N-(benzo[d][1,3]dioxol-5-yl)-2-(3-((2-ethylphenyl)sulfonyl)ureido)-N-methyl-3-phenylpropanamide], the EC50 [1] is reported as < 0.1 µM.

`CCN(C(=O)[C@H](Cc1ccccc1)NC(=O)NS(=O)(=O)c1ccccc1N)c1ccc(OC)cc1` [Example 147, (S)-2-(3-((2-aminophenyl)sulfonyl)ureido)-N-ethyl-N-(4-methoxyphenyl)-3-phenylpropanamide] was tested, and the EC50 [1] was < 0.1 µM.

In the case of `CN(C(=O)[C@H](Cc1ccccc1)NC(=O)NS(=O)(=O)c1ccccc1-c1ccc(F)nc1)c1ccc2c(c1)OCO2` [Example 148, (S)—N-(benzo[d][1,3]dioxol-5-yl)-2-(3-((2-(6-fluoropyridin-3-yl)phenyl)sulfonyl)ureido)-N-methyl-3-phenylpropanamide], the EC50 [1] is reported as 1 to 10 µM.

`CCN(C(=O)[C@H](Cc1ccccc1)NC(=O)NS(=O)(=O)c1cccc(-c2ccco2)c1)c1ccc(OC)cc1` [Example 149] gave an EC50 [1] of 0.1 to 1 µM.

For `CCN(C(=O)[C@H](Cc1ccccc1)NC(=O)NS(=O)(=O)c1cccc(-c2ccsc2Cl)c1)c1ccc(OC)cc1` [Example 150, (S)-2-(3-((3-(2-chlorothiophen-3-yl)phenyl)sulfonyl)ureido)-N-ethyl-N-ethyl-N-(4-methoxyphenyl)-3-phenylpropanamide], the EC50 [1] was 0.1 to 1 µM.

With `CCN(C(=O)[C@H](Cc1ccccc1)NC(=O)NS(=O)(=O)c1cccc(-c2ccsc2)c1)c1ccc(OC)cc1` [Example 151, (S)—N-ethyl-N-(4-methoxyphenyl)-3-phenyl-2-(3-((3-(thiophen-3-yl)phenyl)sulfonyl)ureido)propanamide] the EC50 [1] was 0.1 to 1 µM and the EC50 [2] was 0.11 µM.

For `CCN(C(=O)[C@H](Cc1ccccc1)NC(=O)NS(=O)(=O)c1cccc(-c2ccnn2C)c1)c1ccc(OC)cc1` [Example 152, (S)—N-ethyl-N-(4-methoxyphenyl)-2-(3-((3-(1-methyl-1H-pyrazol-5-yl)phenyl)sulfonyl)ureido)-3-phenylpropanamide], the EC50 [1] was < 0.1 µM and the EC50 [2] was 0.09 µM.

`CCN(C(=O)[C@H](Cc1ccccc1)NC(=O)NS(=O)(=O)c1cccc(-c2csc3ccccc23)c1)c1ccc(OC)cc1` [Example 153, (S)-2-(3-((3-(benzo[b]thiophen-3-yl)phenyl)sulfonyl)ureido)-N-ethyl-N-(4-methoxyphenyl)-3-phenylpropanamide] showed an EC50 [1] of 0.1 to 1 µM.

In the case of `CCN(C(=O)[C@H](Cc1ccccc1)NC(=O)NS(=O)(=O)c1cccc(-c2cc3c(OC)cccc3[nH]2)c1)c1ccc(OC)cc1` [Example 154, (S)—N-ethyl-2-(3-((3-(4-methoxy-1H-indol-2-yl)phenyl)sulfonyl)ureido)-N-(4-methoxyphenyl)-3-phenylpropanamide], the EC50 [1] is reported as 0.1 to 1 µM and the EC50 [2] is reported as 0.67 µM.

With `CCN(C(=O)[C@H](Cc1ccccc1)NC(=O)NS(=O)(=O)c1cccc(-c2ccsc2Cl)c1C)c1ccc(OC)cc1` [Example 156, (S)-2-(3-((3-(2-chlorothiophen-3-yl)-2-methylphenyl)sulfonyl)ureido)-N-ethyl-N-(4-methoxyphenyl)-3-phenylpropanamide] the EC50 [1] was 0.1 to 1 µM.

`CCN(C(=O)[C@H](Cc1ccccc1)NC(=O)NS(=O)(=O)c1cccc(-c2ccsc2)c1C)c1ccc(OC)cc1` [Example 157, (S)—N-ethyl-N-(4-methoxyphenyl)-2-(3-((2-methyl-3-(thiophen-3-yl)phenyl)sulfonyl)ureido)-3-phenylpropanamide] showed an EC50 [1] of 0.1 to 1 µM.

`CCN(C(=O)[C@H](Cc1ccccc1)NC(=O)NS(=O)(=O)c1cccc(-c2ccnn2C)c1C)c1ccc(OC)cc1` [Example 158, (S)—N-ethyl-N-(4-methoxyphenyl)-2-(3-((2-methyl-3-(1-methyl-1H-pyrazol-5-yl)phenyl)sulfonyl)ureido)-3-phenylpropanamide] was tested, and the EC50 [1] was 0.1 to 1 µM and the EC50 [2] was 0.23 µM.

`CCN(C(=O)[C@H](Cc1ccccc1)NC(=O)NS(=O)(=O)c1cccc(-c2cnoc2)c1C)c1ccc(OC)cc1` [Example 159, (S)—N-ethyl-2-(3-((3-(isoxazol-4-yl)-2-methylphenyl)sulfonyl)ureido)-N-(4-methoxyphenyl)-3-phenylpropanamide] gave an EC50 [1] of 0.1 to 1 µM.

For `CCN(C(=O)[C@H](Cc1ccccc1)NC(=O)NS(=O)(=O)c1cccc(-c2csc(C(=O)O)c2)c1C)c1ccc(OC)cc1` [Example 160], the EC50 [1] was 1 to 10 µM and the EC50 [2] was 5.64 µM.

Compound `CCN(C(=O)[C@H](Cc1ccccc1)NC(=O)NS(=O)(=O)c1cccc(-c2csc3ccccc23)c1C)c1ccc(OC)cc1` [Example 161, (S)-2-(3-((3-(benzo[b]thiophen-3-yl)-2-methylphenyl)sulfonyl)ureido)-N-ethyl-N-(4-methoxyphenyl)-3-phenylpropanamide] has an EC50 [1] of 1 to 10 µM.

Compound `CCN(C(=O)[C@H](Cc1ccccc1)NC(=O)NS(=O)(=O)c1cccc(-c2cc3c(OC)cccc3[nH]2)c1C)c1ccc(OC)cc1` [Example 162, (S)—N-ethyl-2-(3-((3-(4-methoxy-1H-indol-2-yl)-2-methylphenyl)sulfonyl)ureido)-N-(4-methoxyphenyl)-3-phenylpropanamide] has an EC50 [1] of 1 to 10 µM.

In the case of `Cc1cccc(N(C)C(=O)[C@H](Cc2ccccc2)NC(=O)NS(=O)(=O)c2ccccc2C)c1` [Example 163, (S)—N-methyl-3-phenyl-N-(m-tolyl)-2-(3-(o-tolylsulfonyl)ureido)propanamide], the EC50 [1] is reported as 0.1 to 1 µM.

Compound `Cc1ccccc1S(=O)(=O)NC(=O)N[C@@H](Cc1ccccc1)C(=O)N(C)c1ccc(Cl)cc1` [Example 164, (S)—N-(4-chlorophenyl)-N-methyl-3-phenyl-2-(3-(o-tolylsulfonyl)ureido)propanamide] has an EC50 [1] of 0.1 to 1 µM.

With `COc1ccccc1N(C)C(=O)[C@H](Cc1ccccc1)NC(=O)NS(=O)(=O)c1ccccc1C` [Example 165, (S)—N-(2-methoxyphenyl)-N-methyl-3-phenyl-2-(3-(o-tolylsulfonyl)ureido)propanamide] the EC50 [1] was 1 to 10 µM.

`COc1cccc(N(C)C(=O)[C@H](Cc2ccccc2)NC(=O)NS(=O)(=O)c2ccccc2C)c1` [Example 166, (S)—N-(3-methoxyphenyl)-N-methyl-3-phenyl-2-(3-(o-tolylsulfonyl)ureido)propanamide] showed an EC50 [1] of 0.1 to 1 µM and an EC50 [2] of 0.24 µM.

`COc1ccc(N(C)C(=O)[C@H](Cc2ccccc2)NC(=O)NS(=O)(=O)c2ccccc2C)cc1` [Example 167, (S)—N-(4-methoxyphenyl)-N-methyl-3-phenyl-2-(3-(o-tolylsulfonyl)ureido)propanamide] was tested, and the EC50 [1] was < 0.1 µM.

In the case of `Cc1ccccc1S(=O)(=O)NC(=O)N[C@@H](Cc1ccccc1)C(=O)N(C)c1cccc(F)c1` [Example 168, (S)—N-(3-fluorophenyl)-N-methyl-3-phenyl-2-(3-(o-tolylsulfonyl)ureido)propanamide], the EC50 [1] is reported as 0.1 to 1 µM.

In the case of `Cc1ccccc1S(=O)(=O)NC(=O)N[C@@H](Cc1ccccc1)C(=O)N(C)c1ccc(F)cc1` [Example 169, (S)—N-(4-fluorophenyl)-N-methyl-3-phenyl-2-(3-(o-tolylsulfonyl)ureido)propanamide], the EC50 [1] is reported as 0.1 to 1 µM.
